Measurements published in patent US20060135800A1, “2-Methylene-19,21-dinor-1alpha-hydroxy-bishomopregnacalciferol” (Wisconsin Alumni Research Foundation, priority 2004, published 2006).
Entries after “also recorded” stand apart in the source; their conditions may differ.

How the values were obtained:
[1] = Bone calcium mobilization (serum calcium); format: in vivo, rat; conditions: rats, ip; even at 100 times the dose of 1α,25-dihydroxyvitamin D3; FIG. 4
Protocol: (§1) Male, weanling Sprague-Dawley rats were placed on Diet 11 (0.47% Ca) diet +AEK for one week followed by Diet 11 (0.02% Ca) +AEK for 3 weeks. The rats were then switched to a diet containing 0.47% Ca for one week followed by two weeks on a diet containing 0.02% Ca. Dose administration began during the last week on 0.02% calcium diet. Four consecutive ip doses were given approximately 24 hours apart. Twenty-four hours after the last dose, blood was collected from the severed neck and the concentration of serum calcium determined as a measure of bone calcium mobilization. The first 10 cm of the intestine was also collected for intestinal calcium transport analysis using the everted gut sac method.

[2] = PTH suppression in adult rats; format: in vivo, rat; conditions: normal rats, ip, 7 consecutive days; FIG. 7
Protocol: (§2) Adult, female Sprague-Dawley rats were obtained from Harlan (Madison, Wis.).
(§3) Animals were randomly assigned to treatment groups (5 animals/group). All doses were administered intraperitoneally in 100 microliters of propylene glycol. Four to seven consecutive doses were given approximately 24 hours apart. Dosing was initiated after the animals had been allowed to acclimate for at least one week.
(§4) Both control and test articles were administered by intraperitoneal injection in 100 microliters for 4-7 consecutive days spaced approximately 24 hours apart. 1,25(OH)2D3 was given for 4 consecutive days, whereas, the test drugs were given for 7 consecutive days.
Twenty-four hours after the final dose, blood was collected from the tail artery and the concentration of bioactive serum PTH was measured using the rat BioActive Intact PTH ELISA Kit from Immutopics, Inc. (San Clemente, Calif.).

[3] = tested on: 24-hydroxylase (24Ohase) gene promoter in ROS 17/2.8 (bone) cells; assay: In vitro transcription assay (24-hydroxylase promoter luciferase reporter); format: cell-based; conditions: stably transfected Ros17/2.8 (bone) cells; FIG. 3
Protocol: Transcription activity was measured in ROS 17/2.8 (bone) cells that were stably transfected with a 24-hydroxylase (24Ohase) gene promoter upstream of a luciferase reporter gene (Arbour et al., 1998). Cells were given a range of doses. Sixteen hours after dosing the cells were harvested and luciferase activities were measured using a luminometer. RLU=relative luciferase units.

HL-60 cells = assay: HL-60 differentiation (nitro blue tetrazolium reduction); format: cell-based, human
Protocol: The study drugs were dissolved in ethanol and the concentrations determined using UV spectrophotometry. Serial dilutions were prepared so that a range of drug concentrations could be tested without changing the final concentration of ethanol (≦0.2%) present in the cell cultures.
Human promyelocytic leukemia (HL60) cells were grown in RPMI-1640 medium containing 10% fetal bovine serum. The cells were incubated at 37° C. in the presence of 5% CO2.
HL60 cells were plated at 1.2×10^5 cells/ml. Eighteen hours after plating, cells in duplicate were treated with drug. Four days later, the cells were harvested and a nitro blue tetrazolium reduction assay was performed (Collins et al., 1979; J. Exp. Med. 149:969-974). The percentage of differentiated cells was determined by counting a total of 200 cells and recording the number that contained intracellular black-blue formazan deposits. Verification of differentiation to monocytic cells was determined by measuring phagocytic activity (data not shown).

[4] = Serum calcium in adult rats (hypercalcemia); format: in vivo, rat; conditions: ip, FIG. 6
Protocol: as §2, §3, §4
Twenty-four hours after the final dose, approximately 1 ml of blood was collected from the tail artery of each experimental animal. The blood was allowed to coagulate at room temperature and then centrifuged at 3000×g for 15 minutes. The serum was transferred to a polypropylene tube and stored frozen at −20° C. The level of calcium was determined by diluting the serum into 0.1% lanthum chloride and measuring the absorbance on an atomic absorption spectrophotometer (Perkin Elmer Model 3110, Shelton, Conn.).

[5] = target: T1, full-length recombinant rat vitamin D receptor (Rattus norvegicus, UniProt P13053); assay: Vitamin D receptor binding, competition with [3H]-1,25-(OH)2-D3
T1 construct: Full-length recombinant rat receptor was expressed in E. coli; His tag (C); made in house; host or cells: E. coli BL21(DE3) Codon Plus RIL
T1 sequence (P13053 1-423): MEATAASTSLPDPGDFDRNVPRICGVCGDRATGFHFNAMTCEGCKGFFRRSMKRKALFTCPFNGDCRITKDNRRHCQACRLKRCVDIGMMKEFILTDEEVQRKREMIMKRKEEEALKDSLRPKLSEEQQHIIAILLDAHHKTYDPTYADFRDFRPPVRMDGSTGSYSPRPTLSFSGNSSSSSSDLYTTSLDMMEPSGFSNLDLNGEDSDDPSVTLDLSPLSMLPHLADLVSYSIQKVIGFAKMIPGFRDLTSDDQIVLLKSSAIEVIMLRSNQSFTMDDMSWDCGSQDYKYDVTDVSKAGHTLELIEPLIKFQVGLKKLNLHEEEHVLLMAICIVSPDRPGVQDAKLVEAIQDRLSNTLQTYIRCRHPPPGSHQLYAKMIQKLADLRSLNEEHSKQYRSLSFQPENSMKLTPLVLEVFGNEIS
Protocol: Full-length recombinant rat receptor was expressed in E. coli BL21(DE3) Codon Plus RIL cells and purified to homogeneity using two different column chromatography systems. The first system was a nickel affinity resin that utilizes the C-terminal histidine tag on this protein. The protein that was eluted from this resin was further purified using ion exchange chromatography (S-Sepharose Fast Flow). Aliquots of the purified protein were quick frozen in liquid nitrogen and stored at −80° C. until use. For use in binding assays, the protein was diluted in TEDK50 (50 mM Tris, 1.5 mM EDTA, pH 7.4, 5 mM DTT, 150 mM KCl) with 0.1% Chaps detergent. The receptor protein and ligand concentration was optimized such that no more than 20% of the added radiolabeled ligand was bound to the receptor.
Unlabeled ligands were dissolved in ethanol and the concentrations determined using UV spectrophotometry (1,25(OH)2D3: molar extinction coefficient=18,200 and λmax=265 nm; Analogs: molar extinction coefficient=42,000 and λmax=252 nm). Radiolabeled ligand (^3H-1,25(OH)2D3, ˜159 Ci/mmole) was added in ethanol at a final concentration of 1 nM.
Radiolabeled and unlabeled ligands were added to 100 mcl of the diluted protein at a final ethanol concentration of ≦10%, mixed and incubated overnight on ice to reach binding equilibrium. […] Total binding was determined from the tubes containing only radiolabeled ligand.

[6] = Intestinal calcium transport (everted gut sac method); format: in vivo, rat; conditions: rats, ip; even at 100 times the dose of 1α,25-dihydroxyvitamin D3; FIG. 5
Protocol: as §1

binding to the recombinant vitamin D receptor, times less active than 1α,25-dihydroxyvitamin D3 ([5]; relative to 1α,25-dihydroxyvitamin D3, FIG. 1): about 5 times
binding to vitamin D receptors (in words) ([5]; summary statement): relatively high binding
Compound: C=C1[C@H](O)CC(=C/C=C2\CCC[C@]3(C)C(CCC)CC[C@@H]23)C[C@H]1O (stereo in doubt) [2-methylene-19,21-dinor-1α-hydroxy-bishomopregnacalciferol]
calcemic activity measured by bone calcium mobilization [1]: very low ability to mobilize calcium from bone; also recorded: no calcemic activity
suppressing parathyroid hormone levels [2]: significant activity
stimulating transcription of a reporter gene [3]: active
inducing differentiation of HL-60 cells, times less active than 1α,25-dihydroxyvitamin D3 (HL-60 cells; relative to 1α,25-dihydroxyvitamin D3, FIG. 2): about 15 times
cell differentiation activity (in words) (HL-60 cells; summary statement): relatively high cell differentiation activity
raising serum calcium concentrations [4]: absence of raising serum calcium concentrations
calcemic activity measured by intestinal calcium transport [6]: very low intestinal calcium transport activity; also recorded: no calcemic activity
